Test results published in patent US8227207B2, “Bioactive peptides derived from the proteins of egg white by means of enzymatic hydrolysis” (Consejo Superior de Investigaciones Cientifcas, priority 2004, dated 2012).
Entries after “also recorded” stand apart in the source; their conditions may differ. Residues, ends and D or L forms follow the SMILES beside them.

How the values were obtained:
[1] = Antioxidant activity, ABTS radical cation decolorization assay (TEAC)
Source text: In order to measure the antioxidant activity, the method developed by R. Re, N. Pellegrini, A. Proteggente, A. Pannala, M. Yang and C. Rice-Evans (Antioxidant activity applying an improved ABTS radical cation decolorization assay, Free Radical Biological Medicine, 1999, 26: 1231-1237) is used. The method is based on the disappearance of the radical ABTS^•+ (2,2-azinobis(3-ethylbenzothiazoline-6-sulphonic) acid) owing to the reducing action of different samples with antioxidant activity. […] The antioxidant activity is detected by the fall in the 734 nm absorbency time.
In order to generate the radical […], the compound ABTS (Sigma), dissolved in water at a concentration of 7 mM, is brought into contact with 2.45 mM potassium persulphate in a ratio of 1:2 for 24 hours in the absence of light. After 24 hours, the absorbency at 734 nm is adjusted to a value of 0.70 ±0.02 with 5 mM of phosphate buffer salt (PBS), 138 mM of NaCl, pH =7.4. In a standard experiment, 1 ml of this solution is added to 10 μl of the sample (1.5 mM) dissolved in 0.02 M sodium phosphate buffer, pH =6.5 The experiment is conducted in triplicate, with each sample being incubated with the radical ABTS^•+ for 10 minutes at 37° C., with readings of the absorbency at 734 nm being taken at 1, 6 and 10 minutes. Used as blank is 0.02 M sodium phosphate buffer, pH =6.5 and at the same time as the incubation of the samples is carried out, the radical […] is incubated without any antioxidant agent (control). The antioxidant activity of each sample is calculated with respect to the absorbency at 734 nm shown by the control. The antioxidant activity of the sample is expressed in relation to the antioxidant activity of TROLOX® (6-hydroxy-2,5,7,8-tetramethylchroman-2-carboxylic acid) (Sigma), analogous to vitamin E, by means of a TEAC value (Trolox equivalent antioxidant capacity) at a certain time.
Different ways of calculating the TEAC value have been developed. We use the method described by F. W. P. C. van Overlveld, G. R. M. M. Haenen, J. Rhemrev, J. P. W. Vermeiden and A. Bast (Tyrosine as important contributor to the antioxidant capacity of seminal plasma, Chemical and Biological Interactions, 2000, 127: 151-161), which is valid for calculating the TEAC value of a pure compound, which provokes a decrease in the absorbency which linearly increases as the concentration is increased. In this case, it would only be necessary to calculate a certain concentration of a compound in order to be able to calculate its TEAC value.
The value 0.2845 represents the decrease in absorbency caused by 1 mM of 6-hydroxy-2,5,7,8-tetramethylchroman-2-carboxylic acid.

[2] = system: Wistar-Kyoto rats (WKY); test: Systolic arterial pressure (tail cuff) in normotense Wistar-Kyoto rats; format: in vivo, rat; settings: highest dose used, intragastric probe
Procedure: The effect is studied of various identified peptides and of some products containing them (for example egg white hydrolysed with pepsin for 3 hours and the fraction of it less than 3000 Da) on the arterial pressure of spontaneously hypertensive rats (SHR) and Wistar-Kyoto rats (WKY) which are the normotense controls for the SHR.
This study is conducted with SHR (10) and WKY of 17-24 weeks old and weight between 300 and 350 g, coming from Charles River Laboratories España, S. A. The rats are kept in cages of five by five and maintained at a stable temperature of 25° C. with light-dark cycles of 12 hours, ingesting freely available water and food. In order to carry out the measurement of systolic arterial pressure (SAP) “tail cuff” equipment is used (Le5001, Letica) which automatically provides a digital value of the SAP and records and facilitates the cardiac frequency of the animals. Various measurements are made and the average of all of them is obtained in order to achieve a reliable value of the SAP. Before positioning the cuff and transducer in the tail of the rats, the rats are exposed to a temperature of close to 30° C. in order to facilitate dilation of the caudal artery. Also, in order to ensure the reliability of the measurement, the animals are made to get used to the procedure for two weeks prior to conducting each assay in question.
The administration of the products to be assayed is done by means of an intragastric probe in a time margin of between 9 and 10 o'clock in the morning. The SHR used for the study had SAP values of between 230 and 280 mm Hg. The WKY used for the study at that moment had SAP values of between 160 and 200 mm Hg. Measurements of the SAP were taken from the animals periodically, every 2 hours, up to 8 hours post-administration of the products to be assayed; in addition, a SAP measurement was taken 24 hours after the administration of those products. As negative control (in order to establish the circadian variation of the SAP in probed rats) the measurements of the SAP obtained in rats which had been administered 1 ml of water by means of intragastric probe were used. As positive control, the measurements of the SAP obtained in rats which had been administered 50 mg/kg of Captopril (prototype ACEI drug) by means of intragastric probe were used. This dose of Captopril was administered to each rat in a volume of 1 ml. In order to establish the effect of the unhydrolysed egg white on the arterial pressure of the animals, similar assays to those described above were conducted, in which the animals were treated by the same procedure with 200 mg/kg of previously freeze-dried egg white (reference).
The results obtained are grouped and the mean±the standard error of measurement (SEM) is obtained for a minimum of 9 homogenous assays. […]

Compound: CC[C@H](C)[C@H](NC(=O)[C@@H]1CCCN1C(=O)[C@H](Cc1ccc(O)cc1)NC(=O)[C@H](CCCNC(=N)N)NC(=O)[C@H](CCC(=O)O)NC(=O)[C@H](CCC(=O)O)NC(=O)[C@H](C)NC(=O)[C@@H](N)Cc1ccc(O)cc1)C(=O)N[C@@H](CC(C)C)C(=O)O [SEQ. ID. N^o 6] (H-YAEERYPIL-OH; N-terminus and C-terminus assumed)
- antioxidant activity towards free radicals (in words) [1]: possesses antioxidant activity
- times more antioxidant activity than 6-hydroxy-2,5,7,8-tetramethylchroman-2-carboxylic acid ([1]; 1 mg versus 1 mg): 1.3 times
- TEAC (Trolox equivalent antioxidant capacity) ([1]; 1 minute): 0.8
- TEAC (Trolox equivalent antioxidant capacity) ([1]; 6 minutes): 1.2
- TEAC (Trolox equivalent antioxidant capacity) ([1]; 10 minutes): 1.3
- change in SAP in normotense rats (in words) [2]: not in normotensed Wistar-Kyoto rats; also recorded: none of these compounds modifies the SAP
